Series [1] can be described thus: logP determination by HPLC on a reverse phase column (C18), EEC Directive 79/831 Annex V.A8. The class given is physicochemical. To be noted: pH 2 as printed, HPLC C18, 43° C.
The next series concerns Venturia inaequalis. Briefly: Venturia test (apple)/protective. The class given is in vivo. As to conditions: protective, application rate 100 g/ha, evaluation ten days after inoculation, 0% = control, 100% = no infestation. The method, then:
(§1) [table] To produce an appropriate active ingredient preparation, one part by weight of the active substance is mixed with the specified quantities of solvent and emulsifying agent, and the concentrate is diluted with water to the desired concentration. Young plants are sprayed with the active ingredient preparation at the specified application rate to test the effectiveness of protection. After the sprayed coating has dried, the plants are inoculated with an aqueous conidia suspension of the apple scab pathogen Venturia inaequalis and are then kept in an incubator at 20° C. and 100% relatively humidity for one day. Then the plants are placed in the greenhouse at about 21° C. with relative humidity of about 90%. The evaluation is performed ten days after the inoculation. A degree of effectiveness rating of 0% corresponds to the control, with 100% indicating no infestation observed.

The test system of the next series is Podosphaera leucotricha. Description: Podosphaera test (apple)/protective. The class given is in vivo. As to conditions: protective, application rate 100 g/ha, evaluation ten days after inoculation, 0% = control, 100% = no infestation. On the procedure: as §1, with “spore” for “conidia”, “mildew” for “scab”, “Podosphaera leucotricha.” for “Venturia inaequalis and are then kept in an incubator at 20° C. and 100% relatively humidity for one day.”, “23°” for “21°”, “70%.” for “90%.”

In another series the test system is Botrytis cinerea. Briefly: Botrytis test (bean)/protective. The class given is in vivo. As to conditions: protective, application rate 500 g/ha, evaluation two days after inoculation, 0% = control, 100% = no infestation. On the procedure:
[table] To produce an appropriate active ingredient preparation, one part by weight of the active substance is mixed with the specified quantities of solvent and emulsifying agent, and the concentrate is diluted with water to the desired concentration. Young plants are sprayed with the active ingredient preparation at the specified application rate to test the effectiveness of protection. After the sprayed coating has dried, two small pieces of agar with cultured Botrytis cinerea are placed on each leaf. The inoculated plants are placed in a darkened chamber at about 20° C. and 100% relatively humidity. Two days after the inoculation, the size of the infestation spots on the leaves is evaluated. A degree of effectiveness rating of 0% corresponds to the control, with 100% indicating no infestation observed.

In a further series the test system is Alternaria solani. Description: Alternaria test (tomato)/protective. As to conditions: protective, application rate 750 g/ha, evaluation seven days after inoculation, 0% = control, 100% = no infestation. The class given is in vivo. The method, then:
[table] To produce an appropriate active ingredient preparation, one part by weight of the active substance is mixed with the specified quantities of solvent and emulsifying agent, and the concentrate is diluted with water to the desired concentration. Young tomato plants are sprayed with the active ingredient preparation at the specified application rate to test the effectiveness of protection. One day after treatment, the plants are inoculated with a spore suspension of Alternaria solani and are kept for 24 hours at 100% relatively humidity and 20° C. Subsequently, the plants are kept at 96% relatively humidity and a temperature of 20° C. The evaluation is performed seven days after the inoculation. A degree of effectiveness rating of 0% corresponds to the control, with 100% indicating no infestation observed.

In another series the test system is Puccinia recondita. Description: Puccinia test (wheat)/protective. The class given is in vivo. As to conditions: 240 h, protective, application rate 500 g/ha, evaluation ten days after inoculation, 0% = control, 100% = no infestation, read-out: Degree of effectiveness in %. The method, then:
[table] To produce an appropriate active ingredient preparation, one part by weight of the active substance is mixed with the specified quantities of solvent and emulsifying agent, and the concentrate is diluted with water to the desired concentration. Young plants are sprayed with the active ingredient preparation at the specified application rate to test the effectiveness of protection. After the sprayed coating has dried, the plants are sprayed with a conidia suspension of Puccinia recondita. The plants are kept in an incubator at 20° C. and 100% relatively humidity for 48 hours. Then the plants are placed in a greenhouse at a temperature of about 20° C. and a relatively humidity of 80%, in order to promote the development of rust spots. The evaluation is performed ten days after the inoculation. A degree of effectiveness rating of 0% corresponds to the control, with 100% indicating no infestation observed.

Molecules are shown by their SMILES.

What is called chromatographic logP is lipophilicity estimated from chromatographic retention. The compound `CC(C)S(=O)(=O)C(C)c1ccccc1[N+](=O)[O-]` (stereo not shown) [VII-4, 1-[1-(isopropylsulfonyl)ethyl]-2-nitrobenzene] showed a chromatographic logP in series [1] of 1.99.
With `CCC(C)SC(C)c1ccccc1NC(=O)c1cn(C)nc1C(F)F` (stereo not shown) [drawing 487], the “Degree of effectiveness in %” value in the series on Venturia inaequalis is 99%.
Turning to `CC(C)SC(C)c1ccccc1NC(=O)c1cn(C)nc1C(F)F` (stereo not shown) [drawing 483], in the series on Podosphaera leucotricha, the “Degree of effectiveness in %” value is given as 84%.
As for `CC(C)SC(C)c1ccccc1NC(=O)c1cn(C)nc1C(F)(F)F` (stereo not shown) [drawing 488], the “Degree of effectiveness in %” value in the series on Botrytis cinerea was determined as 84%.
With `CCCC(C)SC(C)c1ccccc1NC(=O)c1sc(C)nc1C(F)(F)F` (stereo not shown) [drawing 486], the “Degree of effectiveness in %” value with Venturia inaequalis is recorded as 89%.
For `CCCC(C)SC(C)c1ccccc1NC(=O)c1cn(C)nc1C(F)F` (stereo not shown) [drawing 492], the “Degree of effectiveness in %” value in the series on Botrytis cinerea came to 97%.
Consider `CCC(C)SC(C)c1ccccc1NC(=O)c1c(C)nn(C)c1F` (stereo not shown) [drawing 517], for which the “Degree of effectiveness in %” value with Alternaria solani stood at 95%.
`CCC(C)SC(C)c1ccccc1NC(=O)c1cn(C)nc1C(F)F` (stereo not shown) [drawing 484]: in the series with Podosphaera leucotricha, the “Degree of effectiveness in %” value was 94%.
Turning to `CCC(C)SC(C)c1ccccc1NC(=O)c1cn(C)nc1C(F)(F)F` (stereo not shown) [drawing 491], in the series on Botrytis cinerea, the “Degree of effectiveness in %” value is recorded as 100%.
For the compound `CCC(C)SC(C)c1ccccc1NC(=O)C1=C(C)OCCS1` (stereo not shown) [drawing 508], the pest or weed control at 500 g/ha in the series on Puccinia recondita is 100%.
On to `CCCC(C)SC(C)c1ccccc1NC(=O)c1sc(C)nc1C(F)(F)F` (stereo not shown) [drawing 490], for which the “Degree of effectiveness in %” value with Botrytis cinerea came out at 99%.
For the compound `Cc1nn(C)c(F)c1C(=O)Nc1ccccc1C(C)SC(C)C` (stereo not shown) [drawing 485], the “Degree of effectiveness in %” value in the series on Venturia inaequalis amounted to 95%.
Turning to `Cc1nn(C)c(F)c1C(=O)Nc1ccccc1C(C)SC(C)C` (stereo not shown) [drawing 482], the “Degree of effectiveness in %” value with Podosphaera leucotricha amounted to 91%.
As to `CCC(C)SC(C)c1ccccc1NC(=O)c1sc(C)nc1C(F)F` (stereo not shown) [drawing 505], the pest or weed control at 500 g/ha in the series with Puccinia recondita was 100%.
Same read-out and setting: then `CC1=C(C(=O)Nc2ccccc2C(C)SC(C)C)SCCO1` (stereo not shown) [drawing 509], with 100%.
With `CC(C)SC(C)c1ccccc1NC(=O)c1cn(C)nc1C(F)F` (stereo not shown) [drawing 489], the “Degree of effectiveness in %” value with Botrytis cinerea was found to be 100%.
On to `CC(C)OC(C)c1ccccc1NC(=O)c1cn(C)nc1C(F)(F)F` (stereo not shown) [drawing 500], for which the pest or weed control at 500 g/ha in the series on Puccinia recondita amounted to 100%.
On the same count and under the same terms, next, `CCCC(C)SC(C)c1ccccc1NC(=O)c1c(C)nn(C)c1Cl` (stereo not shown): 100%.
For the compound `CC(C)OCc1ccccc1NC(=O)c1cn(C)nc1C(F)(F)F` [drawing 515], the “Degree of effectiveness in %” value with Alternaria solani worked out at 95%.
Consider `Cc1nc(C(F)F)c(C(=O)Nc2ccccc2CSC(C)C)s1` [drawing 495], for which, in the series on Puccinia recondita, the pest or weed control at 500 g/ha is 93%.
Turning to `Cc1nn(C)c(F)c1C(=O)Nc1ccccc1C(C)SC(C)C` (stereo not shown) [drawing 516], the “Degree of effectiveness in %” value with Alternaria solani is reported as 90%.
On to `Cc1nn(C)c(Cl)c1C(=O)Nc1ccccc1C(C)SC1CCCC1` (stereo not shown), for which the pest or weed control at 500 g/ha in the series with Puccinia recondita was 100%.
As for `CC(C)SC(C)c1ccccc1NC(=O)c1cn(C)cc1C(F)(F)F` (stereo not shown) [drawing 510], the pest or weed control at 500 g/ha with Puccinia recondita is 100%.
For the compound `CC(C)SC(C)c1ccccc1NC(=O)c1cn(C)cc1C(F)(F)F` (stereo not shown) [drawing 493], the “Degree of effectiveness in %” value with Botrytis cinerea is listed as 97%.
On to `CCC(C)SC(C)c1ccccc1NC(=O)c1cn(C)nc1C` (stereo not shown) [drawing 504], for which the pest or weed control at 500 g/ha in the series with Puccinia recondita was 100%.

The values are drawn from patent publication US7842710B2, “Carboxamides” (Bayer Cropscience AG, priority 2004, dated 2010).
